Test results as given in patent US8273686B2, “Method for combating phytopathogenic fungi” (priority 2006, dated 2012).

What was measured:
Format in all cases: cell-based
[1] = tested on: Phaeoacremonium aleophilum; assay: Microtitre test, growth inhibition (optical density 405 nm); details: tested at 125, 31, 8, 2, 0.5 and 0.125 ppm a.i.; 7 and 14 days' incubation at 23° C.
Experimental: (§1) The products were provided as technical quality active ingredient. Stock solutions of the active ingredients were prepared in DMSO at a concentration of 10 000 ppm a.i. All products were tested at 125, 31, 8, 2, 0.5 and 0.125 ppm a.i.; the DMSO concentration was the same in all dilutions.
(§2) Spore suspensions of the test fungi were prepared in a yeast extract, Bacto peptone and glycerol liquid medium.
(§3) Equal volumes of test compound and spore suspension were added, in triplicate, to the wells of 96-well microtitre plates. The optical densities of the wells were measured with the aid of a photometer at 405 nm immediately after preparation.
(§4) Incubation of the plates followed at 23° C. Further optical density measurements were made after 7 and 14 days' incubation. Growth in the treated wells was compared with the growth in the control (=water) wells.

[2] = tested on: Phaeomoniella chlamydospora; assay: as above; details: tested at 125, 31, 8, 2, 0.5 and 0.125 ppm a.i.; 7 and 14 days' incubation at 23° C.
Experimental: as §1, §2, §3, §4

[3] = tested on: Fomitiporella vitis; assay: Mycelium growth inhibition on PDA Petri dishes; details: mean of 3 repetitions
Experimental: (§5) Test pathogens were Phaeoacremonium sp., Phaemoniella chlamydospora and Fomitiporella vitis (pathogens associated with the Esca disease) as well as Cylindrocarpon destructans and Botryosphaeria sp. (pathogens frequently isolated from vine wood with Esca symptoms).
(§6) The concentrations of active ingredient added to the culture medium were determined previously by diffusion of the product in agar inoculated for the corresponding species.
(§7) Subsequently the diameters of the pathogen growths (mm) were determined visually until the […] (pathogen in PDA medium without fungicide) fully colonised the Petri dishes.
(§8) Levels of inhibition of mycelium growth for different fungal species in relation to fungicide concentration. The results are expressed as percentages and represent the mean of 3 repetitions

[4] = tested on: Cylindrocarpon destructans; assay: Mycelium growth inhibition on PDA Petri dishes; details: mean of 3 repetitions
Experimental: as §5, §6, §7, §8

[5] = tested on: Phaeomoniella chlamydospora; assay: Mycelium growth inhibition on PDA Petri dishes; details: mean of 3 repetitions
Experimental: as §5, §6, §7, §8

[6] = tested on: Phaeoacremonium sp.; assay: Mycelium growth inhibition on PDA Petri dishes; details: mean of 3 repetitions
Experimental: as §5, §6, §7, §8

[7] = tested on: Botryosphaeria sp.; assay: Mycelium growth inhibition on PDA Petri dishes; details: mean of 3 repetitions
Experimental: as §5, §6, §7, §8

[8] = tested on: Ganoderma sp.; assay: Mycelium growth inhibition on PDA Petri dishes; details: mean of 3 repetitions
Experimental: as §6, §7, §8

[9] = 0.1 ppm active ingredient (as Comet)
[10] = 1 ppm active ingredient (as Comet)
[11] = 10 ppm active ingredient (as Comet)
[12] = 100 ppm active ingredient (as Comet)
[13] = 1000 ppm active ingredient (as Comet)

## COC(=O)N(OC)c1ccccc1COc1ccn(-c2ccc(Cl)cc2)n1 [pyraclostrobin]
[1]
  inhibition of the growth of Phaeoacremonium aleophilum: strong to very strong
[2]
  inhibition of the growth of Phaeomoniella chlamydospora: strong to very strong
[3]; [9]
  Percentage mycelium inhibition: 46.47%
[3]; [10]
  Percentage mycelium inhibition: 92.75%
[3]; [11]
  Percentage mycelium inhibition: 98.62%
[3]; [12]
  Percentage mycelium inhibition: 100.00%
[3]; [13]
  Percentage mycelium inhibition: 100.00%
[4]; [9]
  Percentage mycelium inhibition: 33.33%
[4]; [10]
  Percentage mycelium inhibition: 69.61%
[4]; [11]
  Percentage mycelium inhibition: 86.67%
[4]; [12]
  Percentage mycelium inhibition: 90.59%
[4]; [13]
  Percentage mycelium inhibition: 100.00%
[5]; [9]
  Percentage mycelium inhibition: 64.91%
[5]; [10]
  Percentage mycelium inhibition: 93.57%
[5]; [11]
  Percentage mycelium inhibition: 95.32%
[5]; [12]
  Percentage mycelium inhibition: 96.49%
[5]; [13]
  Percentage mycelium inhibition: 100.00%
[6]; [9]
  Percentage mycelium inhibition: 35.65%
[6]; [10]
  Percentage mycelium inhibition: 61.00%
[6]; [11]
  Percentage mycelium inhibition: 77.27%
[6]; [12]
  Percentage mycelium inhibition: 88.28%
[6]; [13]
  Percentage mycelium inhibition: 100.00%
[7]; [9]
  Percentage mycelium inhibition: 23.14%
[7]; [10]
  Percentage mycelium inhibition: 48.04%
[7]; [11]
  Percentage mycelium inhibition: 66.08%
[7]; [12]
  Percentage mycelium inhibition: 88.43%
[7]; [13]
  Percentage mycelium inhibition: 100.00%
[8]; [9]
  Percentage mycelium inhibition: 21.18%
[8]; [10]
  Percentage mycelium inhibition: 65.88%
[8]; [11]
  Percentage mycelium inhibition: 91.37%
[8]; [12]
  Percentage mycelium inhibition: 100.00%
[8]; [13]
  Percentage mycelium inhibition: 100.00%

## CO/N=C(/C(=O)OC)c1ccccc1COc1ccccc1C [kresoxim-methyl]
[2]
  inhibition of the growth of Phaeomoniella chlamydospora: strong to very strong
